Measured values: US20170246204A1, “MEDICAMENT FOR TREATING A DISEASE RELATING TO A DYSFUNCTION OF THE DOPAMINERGIC SYNAPTIC TRANSMISSION” (L'Air Liquide, Société Anonyme pour l'Etude et …, priority 2014, published 2017)

Key:
[1] = system: dopaminergic neurons (TH+) of rat mesencephalon cultures; assay: neurite length per TH+ dopaminergic neuron in mesencephalon cultures; format: cell-based; settings: D14; memantine 10 μM; 75% Xe or 75% N2; p<0.05, n=9
Description: Cultures are prepared from mesencephalon of rat embryos, taking from female Wistar rats, on day 15.5 of gestation. The process for obtaining the mesencephalon cultures comprises the obtaining of a homogeneous cell suspension by mechanical dissociation, that is to say non-enzymatic dissociation, of the embryonic tissue, using Leibovitz's L15 medium (Sigma Aldrich). Aliquots of this suspension are added to 48-well Nunc plates, which have been precoated with a thin layer of polyethyleneimine (1 mg/ml, borate buffer, pH 8.3) so as to allow the adhesion of neuronal cells (Toulorge et al., Faseb J, 2011). The seeding density is between approximately 80 000 and 100 000 cells/cm^2. The mesencephalon cultures are maintained in Minimum Essential culture Medium (MEM), containing 1 g/l of glucose, 2 mM of L-glutamine, 1 mM of sodium pyruvate, non-essential amino acids and a penicillin/streptomycin cocktail. For the first week of culture, this medium is supplemented with 10% of fetal calf serum and 10% of horse serum. […] Up until the moment when the effects of the gases of interest are evaluated, the cultures are placed in a conventional enclosure thermostated at 37° C., in which the CO2 is maintained at 5% by volume and wherein the atmosphere is saturated with water. […] This parameter is evaluated with the same HCS Studio software.

[2] = system: dopaminergic neurons (TH+) of rat mesencephalon cultures; assay: tritiated dopamine reuptake per TH+ dopaminergic neuron in mesencephalon cultures; format: cell-based; settings: D14; memantine 10 μM; 75% Xe or 75% N2; p<0.05, n=9
Description: Cultures are prepared from mesencephalon of rat embryos, taking from female Wistar rats, on day 15.5 of gestation.
The process for obtaining the mesencephalon cultures comprises the obtaining of a homogeneous cell suspension by mechanical dissociation, that is to say non-enzymatic dissociation, of the embryonic tissue, using Leibovitz's L15 medium (Sigma Aldrich).
Aliquots of this suspension are added to 48-well Nunc plates, which have been precoated with a thin layer of polyethyleneimine (1 mg/ml, borate buffer, pH 8.3) so as to allow the adhesion of neuronal cells (Toulorge et al., Faseb J, 2011).
The seeding density is between approximately 80 000 and 100 000 cells/cm^2.
The mesencephalon cultures are maintained in Minimum Essential culture Medium (MEM), containing 1 g/l of glucose, 2 mM of L-glutamine, 1 mM of sodium pyruvate, non-essential amino acids and a penicillin/streptomycin cocktail. For the first week of culture, this medium is supplemented with 10% of fetal calf serum and 10% of horse serum. Starting from the second week, the serum concentrations are reduced to 2% (Gao et al., J Neurosci, 2002).
Up until the moment when the effects of the gases of interest are evaluated, the cultures are placed in a conventional enclosure thermostated at 37° C., in which the CO2 is maintained at 5% by volume and wherein the atmosphere is saturated with water. […]

SMILES	neurite length per TH^+ neuron, effect compared with control cultures under 75% nitrogen (FIG. 2) [1]	dopamine reuptake per TH^+ neuron, effect compared with control cultures under 75% nitrogen (FIG. 1) [2]
[Xe] [Xenon, xenon]	significantly greater	significantly greater
CC12CC3CC(C)(C1)CC(N)(C3)C2 [Memantine, memantine]	significantly greater	significantly greater
